In patent publication US20060069108A1, “Use of (R)-penciclovir triphosphate for the manufacture of a medicament for the treatment of viral diseases” (priority 1995, published 2006):

Legend:
[1] = biological target: HIV-1 reverse transcriptase (Human immunodeficiency virus type 1 group M subtype B, UniProt P04585); assay: Inhibition of HIV-1 reverse transcriptase; assay type: biochemical, human immunodeficiency virus type 1 (HIV-1)
HBV DNA polymerases = HBV DNA polymerases (Hepatitis B virus genotype D subtype ayw, UniProt P03156); assay: Inhibition of HBV DNA polymerases; assay type: biochemical; details: activity compared with the (S)-enantiomer
Chain of HBV DNA polymerases (P03156 whole entry): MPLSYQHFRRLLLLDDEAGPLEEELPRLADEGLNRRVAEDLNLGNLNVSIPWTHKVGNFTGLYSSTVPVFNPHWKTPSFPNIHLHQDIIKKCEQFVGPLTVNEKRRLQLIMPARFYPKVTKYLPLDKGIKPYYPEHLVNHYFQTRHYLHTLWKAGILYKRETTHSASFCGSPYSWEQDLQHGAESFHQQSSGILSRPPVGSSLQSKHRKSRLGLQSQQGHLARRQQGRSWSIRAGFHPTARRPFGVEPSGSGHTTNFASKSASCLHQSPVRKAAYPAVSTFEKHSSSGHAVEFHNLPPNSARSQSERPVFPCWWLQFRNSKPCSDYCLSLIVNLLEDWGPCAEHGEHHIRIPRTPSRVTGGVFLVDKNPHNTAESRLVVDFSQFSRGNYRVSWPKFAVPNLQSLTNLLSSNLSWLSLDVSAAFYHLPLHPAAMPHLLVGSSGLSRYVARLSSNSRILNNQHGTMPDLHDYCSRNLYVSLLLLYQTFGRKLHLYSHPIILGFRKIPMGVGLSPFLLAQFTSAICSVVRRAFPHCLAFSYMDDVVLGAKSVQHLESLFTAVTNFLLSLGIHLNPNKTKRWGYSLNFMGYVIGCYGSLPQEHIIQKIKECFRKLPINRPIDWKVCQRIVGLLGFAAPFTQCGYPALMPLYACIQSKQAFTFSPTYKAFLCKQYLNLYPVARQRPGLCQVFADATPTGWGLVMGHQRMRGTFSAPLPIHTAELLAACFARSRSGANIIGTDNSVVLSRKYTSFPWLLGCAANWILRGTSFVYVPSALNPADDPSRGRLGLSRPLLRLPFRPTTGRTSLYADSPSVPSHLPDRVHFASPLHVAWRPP

| Molecule | inhibition of HIV-1 reverse transcriptase ([1]; activity compared with the (S)-enantiomer) | inhibition of HBV DNA polymerases (HBV DNA polymerases) | inhibition of RNA-directed DNA polymerase (reverse transcriptase) activity of HIV-1 [1] |
| --- | --- | --- | --- |
| Nc1nc2c(ncn2CC[C@H](CO)COP(=O)(O)OP(=O)(O)OP(=O)(O)O)c(=O)[nH]1 (single isomer, unassigned) [(R)-enantiomer of PCV-TP] | more active than the (S)-enantiomer | more active than the (S)-enantiomer | – |
| penciclovir triphosphate [triphosphate derivative of penciclovir, reference compound] | – | – | inhibits |
